Results published in paper PMC9917201, “Enhanced Antibacterial Activity of Substituted Derivatives of NCR169C Peptide” (International Journal of Molecular Sciences, 2023).
≈ marks a conversion by molar mass, not a printed value. Like-named read-outs stand apart in the source and are kept apart here. Non-standard residues stand in square brackets, D forms with d. Residues, ends and D or L forms follow the SMILES beside them. ξ: configuration not given here. ξTrp(6-F) = NC(Cc1c[nH]c2cc(F)ccc12)C(=O)O

What was measured:
[1] = system: Salmonella enterica (ATCC 13076); assay type: cell-based
Summary of the method: (§1)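 Minimal bactericidal concentrations come from a 3 h killing step in potassium-phosphate buffer, pH 7.4, followed by overnight culture of spotted samples on LB agar at 37 °C; the concentration range was 25–[…].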

[2] = system: Enterococcus faecalis (ATCC 29212); assay type: cell-based
Summary of the method: as §1

[3] = system: Escherichia coli (ATCC 8739); assay type: cell-based
Summary of the method: as §1

[4] = system: tested bacteria (ESKAPE pathogens, Listeria monocytogenes, Salmonella enterica); assay type: cell-based; conditions: 3 h, pH 7.4
Summary of the method: as §1

[5] = system: Pseudomonas aeruginosa (ATCC 27853); assay type: cell-based; conditions: ATCC 27853, 3 h, pH 7.4
Summary of the method: as §1

[6] = system: Staphylococcus aureus (HNCMO112011); assay type: cell-based
Summary of the method: as §1

[7] = system: Listeria monocytogenes (ATCC 19111); assay type: cell-based; conditions: ATCC 19111, 3 h, pH 7.4
Summary of the method: as §1

[8] = system: Acinetobacter baumannii (ATCC 17978); assay type: cell-based; conditions: ATCC 17978, 3 h, pH 7.4
Summary of the method: as §1

[9] = system: Klebsiella pneumoniae (NCTC 13440); assay type: cell-based; conditions: NCTC 13440, 3 h, pH 7.4
Summary of the method: as §1

[10] = system: S. aureus (ATCC 25923); assay type: cell-based, Staphylococcus aureus; conditions: ATCC 25923, 3 h, pH 7.4
From the text: (§2) The bacterial strains for the antimicrobial assay were obtained from the ATCC (American Type Culture Collection, Manassas, VA, USA) and NCTC (National Collection of Type Cultures, Salisbury, UK). Gram-negative strains were Pseudomonas aeruginosa (ATCC 27853), Escherichia coli (ATCC 8739, ATCC 35218, and ATCC 25922), Salmonella enterica (ATCC 13076), Klebsiella pneumoniae (NCTC 13440), Acinetobacter baumannii (ATCC 17978) and the Gram-positive strains were Enterococcus faecalis (ATCC 29212), Listeria monocytogenes (ATCC 19111), and Staphylococcus aureus (HNCMO112011 and ATCC 25923).
(§3) Determination of antibacterial activity for the peptides was carried out by utilizing a minimum bactericidal concentration (MBC) bioassay. Synthesized peptides were dissolved in sterile water and used from 25 to 0.125 μM in 2-fold dilution series and incubated with ~10^7 log phase bacteria in Potassium-Phosphate Buffer (PPB, pH: 7.4) for three hours as described earlier. After that, 5 μl of each sample was placed on LB agar and the growth of bacteria was monitored after overnight incubation at 37 °C. The lowest concentration of the antimicrobial agents that completely eliminated viable bacteria was considered the minimal bactericidal concentration (MBC).

[11] = system: E. coli (ATCC 35218); assay type: cell-based, Escherichia coli; conditions: ATCC 35218, 3 h, pH 7.4
From the text: as §2, §3

[12] = system: E. coli (ATCC 25922); assay type: cell-based, Escherichia coli; conditions: ATCC 25922, 3 h, pH 7.4
From the text: as §2, §3

[13] = system: Candida species; conditions: cited from earlier work
From the text: NCR169, a cationic peptide (net charge at pH7 is 1.91) consisting of 38 amino acids with four cysteine residues, is crucial for bacteroid differentiation, and its absence results in no nitrogen fixation but premature nodule senescence. Two NMR structures of NCR169 produced in Escherichia coli resulting from different disulfide bond patterns have been determined by utilizing the ^1H-^15N heteronuclear single-quantum coherence (HSQC) NMR technique.

[14] = system: tested bacteria (ESKAPE pathogens, Listeria monocytogenes, Salmonella enterica); design: method as in PMID 32153547; conditions: same bacterial species; cited from earlier work
[15] = Enterococcus faecalis ATCC 29212, ~10^7 log phase bacteria, 3 h in potassium-phosphate buffer (PPB) pH 7.4, peptide 25 to 0.125 μM 2-fold series, 5 μl on LB agar, overnight 37 °C

Structure (SMILES) | Minimal bactericidal concentration (MBC) S. e. ([1]; ATCC 13076, 3 h, pH 7.4) | Minimal bactericidal concentration (MBC) E. f. ([2]; ATCC 29212, 3 h, pH 7.4) | Minimal bactericidal concentration (MBC) E. c. ([3]; ATCC 8739, 3 h, pH 7.4) | MBC against most or all of the tested bacteria [4] | Minimal bactericidal concentration (MBC) P. a. [5] | Minimal bactericidal concentration (MBC) S. a. ([6]; HNCMO112011, 3 h, pH 7.4) | Minimal bactericidal concentration (MBC) L. m. [7] | Minimal bactericidal concentration (MBC) A. b. [8] | Minimal bactericidal concentration (MBC) K. p. [9] | MBC S.a. ATTC 25923 [10] | MBC E.c. ATTC 35218 [11] | MBC E.c. ATTC 25922 [12] | Minimal bactericidal concentration (MBC) S. e. ([1]; Salmonella enterica ATCC 13076, ~10^7 log phase bacteria, 3 h in PPB pH 7.4, peptide 25 to 0.125 μM 2-fold series, plated on LB agar, overnight 37 °C) | Minimal bactericidal concentration (MBC) E. f. [2, 15] | Minimal bactericidal concentration (MBC) S. a. ([6]; Staphylococcus aureus HNCMO112011, ~10^7 log phase bacteria, 3 h in PPB pH 7.4, peptide 25 to 0.125 μM 2-fold series, plated on LB agar, overnight 37 °C) | antifungal activity against different Candida species [13] | Minimal bactericidal concentration (MBC) E. c. ([3]; Escherichia coli ATCC 8739, ~10^7 log phase bacteria, 3 h in PPB pH 7.4, peptide 25 to 0.125 μM 2-fold series, plated on LB agar, overnight 37 °C) | MBCs compared with the NCR169 peptide derivatives [14]
CC[C@H](C)[C@H](NC(=O)[C@H](CCCCN)NC(=O)[C@H](Cc1ccccc1)NC(=O)[C@H](CC(C)C)NC(=O)[C@@H]1CCCN1C(=O)[C@H](CCCCN)NC(=O)[C@H](CCCCN)NC(=O)[C@H](CO)NC(=O)[C@@H](N)CCCCN)C(=O)NC(Cc1c[nH]c2cc(F)ccc12)C(=O)N[C@@H](CCCCN)C(=O)N[C@@H](CO)C(=O)N[C@H](C(=O)N[C@@H](CCC(=O)O)C(=O)N[C@@H](CC(N)=O)C(=O)N[C@H](C(=O)N[C@@H](CO)C(=O)N[C@H](C(=O)N[C@@H](CC(C)C)C(=O)N[C@@H](Cc1c[nH]c2ccccc12)C(=O)N[C@@H](Cc1ccc(O)cc1)C(=O)N[C@@H](CCCCN)C(N)=O)C(C)C)C(C)C)C(C)C (stereo partly drawn) [NCR169C17–38C12,17/S-10W^6-F II] (H-KSKKPLFKI[ξTrp(6-F)]KSVENVSVLWYK-NH2; N-terminus assumed) | 6.3 µM (≈ 17.2 µg/mL) | 0.8 µM (≈ 2.18 µg/mL) | 0.8 µM (≈ 2.18 µg/mL) | 0.8 to 1.6 µM | 1.6 µM (≈ 4.36 µg/mL) | 0.8 µM (≈ 2.18 µg/mL) | 1.6 µM (≈ 4.36 µg/mL) | 0.8 µM (≈ 2.18 µg/mL) | 1.6 µM (≈ 4.36 µg/mL) | 1.6 µM (≈ 4.36 µg/mL) | 0.8 µM (≈ 2.18 µg/mL) | 0.8 µM (≈ 2.18 µg/mL) |  |  |  |  |  | 
CC[C@H](C)[C@H](NC(=O)[C@H](CCCCN)NC(=O)[C@H](Cc1ccccc1)NC(=O)[C@H](CC(C)C)NC(=O)[C@@H]1CCCN1C(=O)[C@H](CCCCN)NC(=O)[C@H](CCCCN)NC(=O)[C@H](CO)NC(=O)[C@@H](N)CCCCN)C(=O)NC(Cc1c[nH]c2cc(F)ccc12)C(=O)N[C@@H](CCCCN)C(=O)N[C@@H](CO)C(=O)N[C@H](C(=O)N[C@@H](CCC(=O)O)C(=O)N[C@@H](CC(N)=O)C(=O)N[C@H](C(=O)N[C@@H](CO)C(=O)N[C@H](C(=O)N[C@@H](CC(C)C)C(=O)N[C@@H](Cc1c[nH]c2ccccc12)C(=O)N[C@@H](Cc1ccc(O)cc1)C(=O)N[C@@H](CCCCN)C(N)=O)C(C)C)C(C)C)C(C)C (stereo partly drawn) [NCR169C17–38C12,17/S-10W^6-F I] (H-KSKKPLFKI[ξTrp(6-F)]KSVENVSVLWYK-NH2; N-terminus assumed) | 1.6 µM (≈ 4.36 µg/mL) | 1.6 µM (≈ 4.36 µg/mL) | 0.8 µM (≈ 2.18 µg/mL) | 0.8 to 1.6 µM | 0.8 µM (≈ 2.18 µg/mL) | 0.8 µM (≈ 2.18 µg/mL) | 1.6 µM (≈ 4.36 µg/mL) | 1.6 µM (≈ 4.36 µg/mL) | 1.6 µM (≈ 4.36 µg/mL) | 1.6 µM (≈ 4.36 µg/mL) | 0.8 µM (≈ 2.18 µg/mL) | 0.8 µM (≈ 2.18 µg/mL) |  |  |  |  |  | 
CC[C@H](C)[C@H](NC(=O)[C@H](CCCCN)NC(=O)[C@H](Cc1ccccc1)NC(=O)[C@H](CC(C)C)NC(=O)[C@@H]1CCCN1C(=O)[C@H](CCCCN)NC(=O)[C@H](CCCCN)NC(=O)[C@H](CO)NC(=O)[C@@H](N)CCCCN)C(=O)N[C@@H](C)C(=O)N[C@@H](CCCCN)C(=O)N[C@@H](CS)C(=O)N[C@H](C(=O)N[C@@H](CCC(=O)O)C(=O)N[C@@H](CC(N)=O)C(=O)N[C@H](C(=O)N[C@@H](CS)C(=O)N[C@H](C(=O)N[C@@H](CC(C)C)C(=O)N[C@@H](C)C(=O)N[C@@H](Cc1ccc(O)cc1)C(=O)N[C@@H](CCCCN)C(N)=O)C(C)C)C(C)C)C(C)C [NCR169C17–38W10,20/A] (H-KSKKPLFKIAKCVENVCVLAYK-NH2; N-terminus assumed) |  |  | 3.1 µM (≈ 7.78 µg/mL) |  | 3.1 µM (≈ 7.78 µg/mL) |  | 25 µM (≈ 62.7 µg/mL) | 3.1 µM (≈ 7.78 µg/mL) | 12.5 µM (≈ 31.4 µg/mL) |  |  |  | - (-: inactive up to 25 μM) | - (-: inactive up to 25 μM) | - (-: inactive up to 25 μM) | possess antifungal activity |  | 
CC[C@H](C)[C@H](NC(=O)[C@H](CCCCN)NC(=O)[C@H](Cc1ccccc1)NC(=O)[C@H](CC(C)C)NC(=O)[C@@H]1CCCN1C(=O)[C@H](CCCCN)NC(=O)[C@H](CCCCN)NC(=O)[C@H](CO)NC(=O)[C@@H](N)CCCCN)C(=O)N[C@@H](Cc1c[nH]c2ccccc12)C(=O)N[C@@H](CCCCN)C(=O)N[C@@H](CS)C(=O)N[C@H](C(=O)N[C@@H](CCC(=O)O)C(=O)N[C@@H](CC(N)=O)C(=O)N[C@H](C(=O)N[C@@H](CS)C(=O)N[C@H](C(=O)N[C@@H](CC(C)C)C(=O)N[C@@H](Cc1c[nH]c2ccccc12)C(=O)N[C@@H](Cc1ccc(O)cc1)C(=O)N[C@@H](CCCCN)C(N)=O)C(C)C)C(C)C)C(C)C [NCR169C17–38] (H-KSKKPLFKIWKCVENVCVLWYK-NH2; N-terminus assumed) | 3.1 µM (≈ 8.49 µg/mL) |  |  | 3.1 µM | 3.1 µM (≈ 8.49 µg/mL) | 3.1 µM (≈ 8.49 µg/mL) | 3.1 µM (≈ 8.49 µg/mL) | 3.1 µM (≈ 8.49 µg/mL) | 3.1 µM (≈ 8.49 µg/mL) | 3.1 µM (≈ 8.49 µg/mL) | 1.6 µM (≈ 4.38 µg/mL) | 1.6 µM (≈ 4.38 µg/mL) |  | 6.3 µM (≈ 17.3 µg/mL) |  | possess antifungal activity | 1.6 µM (≈ 4.38 µg/mL) | 
CC1(C)S[C@@H]2[C@H](NC(=O)C(C(=O)O)c3ccccc3)C(=O)N2[C@H]1C(=O)O (stereo partly drawn) [carbenicillin] |  |  |  |  |  |  |  |  |  |  |  |  |  |  |  |  |  | 2–4 fold
C[C@H]1COc2c(N3CCN(C)CC3)c(F)cc3c(=O)c(C(=O)O)cn1c23 [levofloxacin] |  |  |  |  |  |  |  |  |  |  |  |  |  |  |  |  |  | either similar or 200-fold higher
